In ChEMBL document CHEMBL5543162, “Discovery of a Novel Orally Bioavailable FLT3-PROTAC Degrader for Efficient Treatment of Acute Myeloid Leukemia and Overcoming Resistance of FLT3 Inhibitors” (J Med Chem, 2024):
Activity calls are given as the source filed them. The calls are words filed in the database; no cut-off is given here.

Key:
[1] = target: T1, Protein cereblon/Receptor-type tyrosine-protein kinase FLT3 (Homo sapiens, UniProt P36888+Q96SW2); assay: PROTAC activity at CRBN/FLT3-ITD mutant in human MOLM-13 cells assessed as protein degradation by Western blot analysis; format: cell-based
[2] = Tmax in Sprague-Dawley rat at 10 mg/kg, po measured for 24 hrs by LC-MS/MS analysis; format: ADME, organism-based; conditions: in vivo
[3] = Stability in monkey liver microsomes assessed as half life; format: ADME, Microsome; conditions: chlorocebus aethiops
[4] = Stability in monkey liver microsomes assessed as hepatic clearance; format: ADME, Microsome; conditions: chlorocebus aethiops
[5] = Stability in mouse liver microsomes assessed as intrinsic clearance; format: ADME, Microsome; conditions: read-out: CLH
CYP3A4/CYP3A5 [6] = target: T2, CYP3A4/CYP3A5 (Homo sapiens, UniProt P08684+P20815); assay: Inhibition of CYP3A4/CYP3A5 (unknown origin) using midazolam as substrate; format: ADME, protein assay; conditions: probe midazolam
MV4-11 [7] = assay: Antitumor activity against human MV4-11 cells xenografted in nu/nu mouse at 10 mg/kg, po administered daily for 2 weeks relative to control; format: functional; conditions: MV4-11, 336 h, read-out: TGI
MV4-11 [8] = assay: Antitumor activity against human MV4-11 cells xenografted in nu/nu mouse at 2.5 mg/kg, po administered daily for 2 weeks relative to control; format: functional; conditions: MV4-11, 336 h, read-out: TGI
MOLM-13 [9] = assay: Antiproliferative activity against Sunitinib-resistant human MOLM-13 cells incubated for 48 hrs by CCK8 assay; format: functional, cell-based; conditions: MOLM-13, 48 h
[10] = Stability in Sprague-Dawley rat plasma at 50 ug/ml incubated upto 8 hrs by LC-MS/MS analysis; format: ADME, cell-free; conditions: at 50 µg/mL
[11] = Stability in monkey liver microsomes assessed as intrinsic clearance; format: ADME, Microsome; conditions: chlorocebus aethiops, read-out: CLH
[12] = Toxicity in nu/nu mouse xenografted with human MV4-11 cells assessed as damage in heart at 1.25 to 10 mg/kg, po administered daily for 2 weeks by H and E staining based analysis; format: organism-based; conditions: in vivo, 336 h, dose 1.25-10 mg/kg
[13] = target: Voltage-gated inwardly rectifying potassium channel KCNH2 (Homo sapiens, UniProt Q12809); assay: Inhibition of hERG; format: toxicity
[14] = tested on: Protein cereblon/Receptor-type tyrosine-protein kinase FLT3 (Homo sapiens), P36888+Q96SW2 [UNDEFINED MUTATION]; assay: PROTAC activity at CRBN/FLT3-ITD mutant in human MV4-11 cells assessed as protein degradation incubated for 12 hrs by Western blot analysis; format: cell-based; conditions: dose <= 20.0 nM
MOLM-13 [15] = assay: Antiproliferative activity against Quizartinib-resistant human MOLM-13 cells incubated for 48 hrs by CCK8 assay; format: functional, cell-based; conditions: MOLM-13, 48 h
BaF3 [16] = assay: Antiproliferative activity against mouse Ba/F3 cells expressing FLT3-ITD D835V mutant incubated for 48 hrs by CCK8 assay; format: functional, cell-based; conditions: BaF3, 48 h
MV4-11 [17] = assay: Induction of cell cycle arrest at G1 phase in human MV4-11 cells at 1 nM incubated for 24 hrs by PI/RNase staining based flow cytometry relative to control; format: functional
MV4-11 [18] = assay: Induction of cell cycle arrest at G1 phase in human MV4-11 cells at 50 nM incubated for 24 hrs by PI/RNase staining based flow cytometry relative to control; format: functional
[19] = Antiproliferative activity against human PBMC cells at 30 to 1000 nM incubated for 48 hrs by CCK8 assay; format: toxicity, cell-based; conditions: 1 µM, dose 30-1000 nM
[20] = Antiproliferative activity against mouse Ba/F3 FLT3-ITD cells incubated for 48 hrs by CCK8 assay; format: functional, cell-based
[21] = Clearance in Sprague-Dawley rat at 10 mg/kg, po measured for 24 hrs by LC-MS/MS analysis; format: ADME, organism-based; conditions: in vivo
[22] = Antiproliferative activity against human HL-60 cells expressing wild-type FLT3 incubated for 48 hrs by CCK8 assay; format: toxicity, cell-based
BaF3 [23] = assay: Antiproliferative activity against mouse Ba/F3 cells expressing FLT3-ITD Y842H mutant incubated for 48 hrs by CCK8 assay; format: functional, cell-based; conditions: BaF3, 48 h
Cytochrome P450 2C9 = Cytochrome P450 2C9 (Homo sapiens, UniProt P11712); assay: Inhibition of CYP2C9 (unknown origin); format: ADME
[24] = tested on: Protein cereblon/Receptor-type tyrosine-protein kinase FLT3 (Homo sapiens), P36888+Q96SW2 [UNDEFINED MUTATION]; assay: PROTAC activity at CRBN/FLT3-ITD mutant in human MV4-11 cells assessed as protein degradation at 100 nM incubated for 24 hrs by Western blot analysis; format: cell-based
[25] = tested on: Protein cereblon/Receptor-type tyrosine-protein kinase FLT3 (Homo sapiens), P36888+Q96SW2 [UNDEFINED MUTATION]; assay: PROTAC activity at CRBN/FLT3-ITD mutant in human MOLM-13 cells assessed as decrease in ERK level incubated for 12 hrs by Western blot analysis; format: cell-based; conditions: dose <= 20.0 nM
[26] = Stability in rat liver microsomes assessed as intrinsic clearance; format: ADME, Microsome; conditions: read-out: CLH
[27] = target: T1, Protein cereblon/Receptor-type tyrosine-protein kinase FLT3; assay: (§1) PROTAC activity at CRBN/FLT3-ITD mutant in human MV4-11 cells assessed as protein degradation by Western blot analysis; format: cell-based
[28] = tested on: Protein cereblon/Receptor-type tyrosine-protein kinase FLT3 (Homo sapiens), P36888+Q96SW2 [UNDEFINED MUTATION]; assay: as §1; format: cell-based
MV4-11 [29] = assay: In vivo PROTAC activity at CRBN/FLT3-ITD mutant in human MV4-11 cells xenografted in nu/nu mouse assessed as protein degradation at 1.25 mg/kg, po administered daily for 2 weeks by immunoblot analysis; format: functional, organism-based
MV4-11 [30] = assay: Antitumor activity against human MV4-11 cells xenografted in nu/nu mouse at 1.25 mg/kg, po administered daily for 2 weeks relative to control; format: functional; conditions: MV4-11, 336 h, read-out: TGI
[31] = Antiproliferative activity against human U-937 cells expressing wild-type FLT3 incubated for 48 hrs by CCK8 assay; format: toxicity, cell-based
MV4-11 [32] = assay: Induction of cell cycle arrest at G1 phase in human MV4-11 cells at 5 nM incubated for 24 hrs by PI/RNase staining based flow cytometry relative to control; format: functional
[33] = Toxicity in nu/nu mouse xenografted with human MV4-11 cells assessed as damage in spleen at 1.25 to 10 mg/kg, po administered daily for 2 weeks by H and E staining based analysis; format: organism-based; conditions: in vivo, 336 h, dose 1.25-10 mg/kg
MOLM-13 [34] = assay: Induction of apoptosis in human MOLM-13 cells incubated for 24 hrs by Annexin V-FITC/PI staining based flow cytometry; format: functional, cell-based; conditions: dose 25-100 nM
CYP3A4/CYP3A5 [35] = target: T2, CYP3A4/CYP3A5; assay: Inhibition of CYP3A4/CYP3A5 (unknown origin) using testosterone as substrate; format: ADME, protein assay; conditions: probe testosterone
Mus musculus = assay: Anti-leukemic activity in NSG mouse xenografted with human MV4-11 cells expressing luciferase assessed as decrease in CD45+/CD33+ cells proportion in spleen at 1.25 to 10 mg/kg, po administered daily for 3 weeks; format: functional, organism-based; conditions: dose 1.25-10 mg/kg
MV4-11 [36] = assay: Antitumor activity against human MV4-11 cells expressing luciferase xenografted in NSG mouse assessed as decrease in leukemic burden at 2.5 to 10 mg/kg, po administered daily for 3 weeks by bioluminescence imaging; format: functional, organism-based; conditions: dose 2.5-10 mg/kg
MV4-11 [37] = assay: Antitumor activity against human MV4-11 cells expressing luciferase xenografted in NSG mouse assessed as increase in animal survival at 2.5 mg/kg, po administered daily for 3 weeks and measured for 58 days; format: functional, organism-based; conditions: time 58.0 day
[38] = tested on: Protein cereblon/Receptor-type tyrosine-protein kinase FLT3 (Homo sapiens), P36888+Q96SW2 [UNDEFINED MUTATION]; assay: PROTAC activity at CRBN/FLT3-ITD mutant in human MV4-11 cells assessed as decrease in STAT5 level at 20 nM by Western blot analysis; format: cell-based; conditions: time <= 12.0 hrs, TDE = time-dependent effect
[39] = Stability in rat liver microsomes assessed as hepatic clearance; format: ADME, Microsome

Protein cereblon/Receptor-type tyrosine-protein kinase FLT3 (Homo sapiens), P36888+Q96SW2 [UNDEFINED MUTATION], sequence (P36888 whole entry, looked up, stated change not applied): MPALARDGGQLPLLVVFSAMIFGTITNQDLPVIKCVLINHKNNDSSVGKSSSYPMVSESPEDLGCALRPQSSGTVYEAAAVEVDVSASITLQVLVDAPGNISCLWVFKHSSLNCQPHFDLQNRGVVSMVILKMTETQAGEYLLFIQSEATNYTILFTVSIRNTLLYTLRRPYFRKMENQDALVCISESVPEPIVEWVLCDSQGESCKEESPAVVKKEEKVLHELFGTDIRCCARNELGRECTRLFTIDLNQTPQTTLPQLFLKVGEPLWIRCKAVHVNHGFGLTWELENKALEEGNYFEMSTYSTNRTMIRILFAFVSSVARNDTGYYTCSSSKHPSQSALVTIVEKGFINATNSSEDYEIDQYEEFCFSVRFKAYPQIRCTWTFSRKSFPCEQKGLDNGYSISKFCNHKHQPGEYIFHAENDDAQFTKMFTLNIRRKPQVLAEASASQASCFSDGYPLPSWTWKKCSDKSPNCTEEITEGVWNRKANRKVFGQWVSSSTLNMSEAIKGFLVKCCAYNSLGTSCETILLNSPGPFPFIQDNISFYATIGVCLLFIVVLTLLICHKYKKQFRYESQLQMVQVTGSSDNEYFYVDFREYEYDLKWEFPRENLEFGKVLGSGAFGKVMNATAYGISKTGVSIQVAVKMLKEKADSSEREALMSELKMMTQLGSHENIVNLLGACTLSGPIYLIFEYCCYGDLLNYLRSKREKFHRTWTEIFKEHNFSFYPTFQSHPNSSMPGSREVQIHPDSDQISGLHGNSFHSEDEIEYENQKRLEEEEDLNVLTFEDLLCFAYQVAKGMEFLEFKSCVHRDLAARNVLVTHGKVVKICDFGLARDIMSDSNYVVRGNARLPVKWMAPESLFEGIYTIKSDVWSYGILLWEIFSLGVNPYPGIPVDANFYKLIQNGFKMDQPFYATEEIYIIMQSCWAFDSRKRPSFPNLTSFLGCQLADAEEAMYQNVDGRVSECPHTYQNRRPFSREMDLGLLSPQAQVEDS
Protein cereblon/Receptor-type tyrosine-protein kinase FLT3 (Homo sapiens), P36888+Q96SW2 [UNDEFINED MUTATION], sequence (Q96SW2 whole entry, looked up, stated change not applied): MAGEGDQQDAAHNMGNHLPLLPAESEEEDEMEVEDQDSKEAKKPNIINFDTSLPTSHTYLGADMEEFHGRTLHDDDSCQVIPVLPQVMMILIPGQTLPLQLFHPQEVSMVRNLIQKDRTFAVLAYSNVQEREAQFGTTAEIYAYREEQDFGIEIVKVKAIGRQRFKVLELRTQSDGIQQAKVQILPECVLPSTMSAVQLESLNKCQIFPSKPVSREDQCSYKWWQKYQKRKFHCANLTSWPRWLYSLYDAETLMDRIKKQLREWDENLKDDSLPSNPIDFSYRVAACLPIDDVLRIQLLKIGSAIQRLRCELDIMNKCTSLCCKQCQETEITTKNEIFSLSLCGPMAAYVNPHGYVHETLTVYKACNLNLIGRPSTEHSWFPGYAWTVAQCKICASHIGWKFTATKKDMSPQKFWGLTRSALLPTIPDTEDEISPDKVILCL
T1 sequence (P36888 whole entry, looked up, change not shown): as the sequence (P36888 whole entry, looked up, stated change not applied) above
T1 sequence (Q96SW2 whole entry, looked up, change not shown): as the sequence (Q96SW2 whole entry, looked up, stated change not applied) above
Voltage-gated inwardly rectifying potassium channel KCNH2, sequence (Q12809 whole entry): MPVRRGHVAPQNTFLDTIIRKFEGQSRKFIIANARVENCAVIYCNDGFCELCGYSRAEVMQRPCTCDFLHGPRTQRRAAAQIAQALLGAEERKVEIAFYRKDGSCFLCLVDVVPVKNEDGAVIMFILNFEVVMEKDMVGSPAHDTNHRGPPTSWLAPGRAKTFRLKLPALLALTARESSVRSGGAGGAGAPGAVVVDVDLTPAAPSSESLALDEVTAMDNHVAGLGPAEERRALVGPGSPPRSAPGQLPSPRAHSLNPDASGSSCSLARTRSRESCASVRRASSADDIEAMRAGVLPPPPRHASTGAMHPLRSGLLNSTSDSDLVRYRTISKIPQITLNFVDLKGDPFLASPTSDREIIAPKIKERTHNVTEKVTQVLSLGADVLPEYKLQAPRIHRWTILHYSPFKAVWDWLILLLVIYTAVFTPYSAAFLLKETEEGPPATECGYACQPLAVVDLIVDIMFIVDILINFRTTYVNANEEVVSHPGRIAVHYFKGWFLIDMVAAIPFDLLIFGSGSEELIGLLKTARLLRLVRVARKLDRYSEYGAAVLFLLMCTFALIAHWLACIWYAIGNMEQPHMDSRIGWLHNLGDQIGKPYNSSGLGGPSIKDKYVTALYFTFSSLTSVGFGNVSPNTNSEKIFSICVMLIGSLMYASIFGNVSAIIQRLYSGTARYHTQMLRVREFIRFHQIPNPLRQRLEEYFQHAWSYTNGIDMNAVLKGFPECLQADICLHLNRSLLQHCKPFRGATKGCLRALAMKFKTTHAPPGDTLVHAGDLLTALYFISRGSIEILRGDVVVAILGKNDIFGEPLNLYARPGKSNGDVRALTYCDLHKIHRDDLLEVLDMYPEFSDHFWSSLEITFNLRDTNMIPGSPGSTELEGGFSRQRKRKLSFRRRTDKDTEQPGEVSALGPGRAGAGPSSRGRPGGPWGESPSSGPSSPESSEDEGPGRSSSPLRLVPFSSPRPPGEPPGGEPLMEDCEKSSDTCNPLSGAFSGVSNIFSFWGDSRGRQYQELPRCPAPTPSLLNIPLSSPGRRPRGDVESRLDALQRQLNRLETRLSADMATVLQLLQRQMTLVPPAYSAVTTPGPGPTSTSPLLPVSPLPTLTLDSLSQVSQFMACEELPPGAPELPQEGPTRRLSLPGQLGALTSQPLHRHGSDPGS
Cytochrome P450 2C9, sequence (P11712 whole entry): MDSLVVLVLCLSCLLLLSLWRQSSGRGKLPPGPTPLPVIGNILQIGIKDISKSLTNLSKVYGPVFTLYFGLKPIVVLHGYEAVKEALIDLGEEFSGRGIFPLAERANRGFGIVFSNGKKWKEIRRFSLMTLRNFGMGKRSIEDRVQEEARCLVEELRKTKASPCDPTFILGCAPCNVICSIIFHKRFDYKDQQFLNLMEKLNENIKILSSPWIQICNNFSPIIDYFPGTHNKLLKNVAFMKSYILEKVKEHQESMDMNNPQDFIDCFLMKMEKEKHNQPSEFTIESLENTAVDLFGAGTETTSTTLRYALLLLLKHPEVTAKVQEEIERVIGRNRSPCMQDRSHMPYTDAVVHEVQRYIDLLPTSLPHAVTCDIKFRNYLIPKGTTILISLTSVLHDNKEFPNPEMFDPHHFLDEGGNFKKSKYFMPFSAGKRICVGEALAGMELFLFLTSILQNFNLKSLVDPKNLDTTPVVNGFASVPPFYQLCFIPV

**Q.** For `Cc1c(NC(=O)CN2CCN(CC3CCN(c4ccc5c(c4)C(=O)N(C4CCC(=O)NC4=O)C5=O)CC3)CC2)c[nH]c1/C=C1\C(=O)Nc2ccc(F)cc21` (stereo unspecified), which DC50 [1] is on record?
**A.** 20.1 nM

**Q.** What about the Tmax [2] of the same molecule?
**A.** 6.2 h

**Q.** And the half-life [3]?
**A.** 0.615 h

**Q.** And the CLhep predicted [4]?
**A.** 23.4 mL/min/kg

**Q.** What about the CLint scaled [5] of the same molecule?
**A.** 92.7 mL/min/kg

**Q.** What about the IC50 (CYP3A4/CYP3A5 [6]) of the same molecule?
**A.** > 50000 nM

**Q.** And the inhibition in vivo at 10 mg/kg (MV4-11 [7])?
**A.** 100%

**Q.** And the inhibition in vivo at 2.5 mg/kg (MV4-11 [8])?
**A.** 84.4%

**Q.** What about the IC50 (MOLM-13 [9]) of the same molecule?
**A.** 147 nM

**Q.** What about the Stability [10] of the same molecule?
**A.** Stable

**Q.** And the CLint scaled [11]?
**A.** 50.7 mL/min/kg

**Q.** And the Activity [12]?
**A.** Non-Toxic

**Q.** And the IC50 [13]?
**A.** > 40000 nM

**Q.** And the Activity [14]?
**A.** Dose-Dependent Effect

**Q.** What about the IC50 (MOLM-13 [15]) of the same molecule?
**A.** 484 nM

**Q.** What about the IC50 (BaF3 [16]) of the same molecule?
**A.** 45.1 nM

**Q.** What about the Activity (MV4-11 [17]) of the same molecule?
**A.** 82%

**Q.** And the Activity (MV4-11 [18])?
**A.** 89.2%

**Q.** What about the Activity [19] of the same molecule?
**A.** Non-Toxic

**Q.** And the IC50 [20]?
**A.** 17 nM

**Q.** And the CL/F [21]?
**A.** 11.2 mL/min/kg

**Q.** What about the IC50 at 48 h [22] of the same molecule?
**A.** > 40000 nM

**Q.** What about the IC50 (BaF3 [23]) of the same molecule?
**A.** 46.7 nM

**Q.** And the IC50 (Cytochrome P450 2C9)?
**A.** > 50000 nM

**Q.** And the Activity [24]?
**A.** Active

**Q.** What about the Activity [25] of the same molecule?
**A.** Dose-Dependent Effect

**Q.** And the CLint scaled [26]?
**A.** 27 mL/min/kg

**Q.** What about the DC50 [27] of the same molecule?
**A.** 7.4 nM

**Q.** And the Activity [28]?
**A.** Dose-Dependent Effect

**Q.** And the Activity (MV4-11 [29])?
**A.** Active

**Q.** And the inhibition in vivo at 1.25 mg/kg (MV4-11 [30])?
**A.** 51.4%

**Q.** What about the IC50 at 48 h [31] of the same molecule?
**A.** > 40000 nM

**Q.** What about the Activity (MV4-11 [32]) of the same molecule?
**A.** 85.5%

**Q.** And the Activity [33]?
**A.** Non-Toxic

**Q.** What about the Activity (MOLM-13 [34]) of the same molecule?
**A.** Dose-Dependent Effect

**Q.** What about the IC50 (CYP3A4/CYP3A5 [35]) of the same molecule?
**A.** > 50000 nM

**Q.** What about the Activity (Mus musculus) of the same molecule?
**A.** Active

**Q.** What about the Activity (MV4-11 [36]) of the same molecule?
**A.** Active

**Q.** And the Activity (MV4-11 [37])?
**A.** Active

**Q.** And the Activity [38]?
**A.** Tde

**Q.** And the CLhep predicted [39]?
**A.** 20.5 mL/min/kg
